Experiments:
Format in all cases: in vivo
[1] = system: oat, wild (wild oat, Avena fatua); assay: Test C greenhouse herbicide test, postemergence; conditions: for Plant response rating, Oat, Wild: Postemergence
How it was run: (§1)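 Postemergence foliar treatment, 1- to 4-leaf stage (2–18 cm), peat/vermiculite medium; greenhouse 13–15 d; visual rating vs controls, 0 = no effect, 100 = complete control; dash = no result.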

kochia (Kochia scoparia) = assay: Test C greenhouse herbicide test, postemergence; conditions: for Plant response rating, Kochia: Postemergence
How it was run: as §1

soybean (Glycine max) = assay: Test C greenhouse herbicide test, pre- and postemergence
How it was run: (§2)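 Pre- and postemergence greenhouse screen; values are visual control ratings, 0 meaning no effect and 100 complete kill, assigned relative to untreated plants after 13 to 15 d.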

[2] = system: waterhemp (common waterhemp, Amaranthus rudis); assay: as above
How it was run: as §2

[3] = system: foxtail, giant (giant foxtail, Setaria faberii); assay: as above
How it was run: as §2

[4] = system: wheat (winter wheat, Triticum aestivum); assay: as above
How it was run: as §2

[5] = system: pigweed (Amaranthus retroflexus); assay: as above
How it was run: as §2

[6] = system: barnyardgrass (Echinochloa crus-galli); assay: as above
How it was run: as §2

[7] = system: ryegrass, Italian (Italian ryegrass, Lolium multiflorum); assay: as above
How it was run: as §2

[8] = system: ragweed (common ragweed, Ambrosia elatior); assay: as above
How it was run: as §2

[9] = system: johnsongrass (Sorghum halepense); assay: as above
How it was run: as §2

[10] = system: blackgrass (Alopecurus myosuroides); assay: as above
How it was run: as §2

corn (Zea mays) = assay: as above
How it was run: as §2

[11] = system: lambsquarters (Chenopodium album); assay: as above
How it was run: as §2

[12] = system: morningglory (Ipomoea coccinea); assay: as above
How it was run: as §2

[13] = system: crabgrass, large (large crabgrass, Digitaria sanguinalis); assay: as above
How it was run: as §2

[14] = 125 g ai/ha, scale 0 to 100, 0 is no effect, 100 is complete control
[15] = 250 g ai/ha, scale 0 to 100, 0 no effect, 100 complete control, 13 to 15 d
[16] = postemergence, 62 g ai/ha, scale 0 to 100, 0 no effect, 100 complete control
[17] = Postemergence, 125 g ai/ha, scale 0 to 100, 0 is no effect, 100 is complete control
[18] = Postemergence, 250 g ai/ha, scale 0 to 100, 0 no effect, 100 complete control, 13 to 15 d
[19] = Preemergence, 31 g ai/ha, scale 0 to 100, 0 is no effect, 100 is complete control
[20] = Preemergence, 62 g ai/ha, scale 0 to 100, 0 is no effect, 100 is complete control
[21] = Preemergence, 125 g ai/ha, scale 0 to 100, 0 is no effect, 100 is complete control
[22] = Preemergence, 250 g ai/ha, scale 0 to 100 (0 no effect, 100 complete control)
[23] = Postemergence, 31 g ai/ha, 0 to 100 scale (0 no effect, 100 complete control)

Question: How did the “Plant response rating, Oat, Wild” value [1, 14] turn out when `Cc1cc(C)c2sc(C)c(-c3c(OC(=O)OCCCl)c(C)nn(C)c3=O)c2c1` [Compound 85] was run?
Answer: 95

Question: What about the “Plant response rating, Oat, Wild” value [1, 15] of the same compound?
Answer: 90

Question: What about the “Oat, Wild plant response rating” value [1, 16] of the same compound?
Answer: 90

Question: What about the “Plant response rating, Kochia” value (kochia (Kochia scoparia); [14]) of the same compound?
Answer: 60

Question: And the “Plant response rating, Kochia” value (kochia (Kochia scoparia); [15])?
Answer: 70

Question: What about the “Kochia plant response rating” value (kochia (Kochia scoparia); [16]) of the same compound?
Answer: 70

Question: What about the “Plant response rating, Soybean” value (soybean (Glycine max); [17]) of the same compound?
Answer: 0

Question: And the “Plant response rating, Soybean” value (soybean (Glycine max); [18])?
Answer: 15

Question: And the “Plant response rating, Soybean” value (soybean (Glycine max); [19])?
Answer: 0

Question: What about the “Plant response rating, Soybean” value (soybean (Glycine max); [20]) of the same compound?
Answer: 0

Question: What about the “Plant response rating, Soybean” value (soybean (Glycine max); [21]) of the same compound?
Answer: 0

Question: And the “Soybean plant response rating” value (soybean (Glycine max); [22])?
Answer: 0

Question: What about the “Soybean plant response rating” value (soybean (Glycine max); [16]) of the same compound?
Answer: 0

Question: And the “Plant response rating, Waterhemp” value [2, 17]?
Answer: 85

Question: What about the “Plant response rating, Waterhemp” value [2, 18] of the same compound?
Answer: 85

Question: What about the “Plant response rating, Waterhemp” value [2, 19] of the same compound?
Answer: 60

Question: And the “Plant response rating, Waterhemp” value [2, 20]?
Answer: 80

Question: What about the “Plant response rating, Waterhemp” value [2, 21] of the same compound?
Answer: 90

Question: And the “Waterhemp plant response rating” value [2, 22]?
Answer: 100

Question: What about the “Waterhemp plant response rating” value [2, 16] of the same compound?
Answer: 65

Question: And the “Plant response rating, Foxtail, Giant” value [3, 17]?
Answer: 90

Question: And the “Plant response rating, Foxtail, Giant” value [3, 18]?
Answer: 90

Question: What about the “Plant response rating, Foxtail, Giant” value [3, 19] of the same compound?
Answer: 90

Question: What about the “Plant response rating, Foxtail, Giant” value [3, 20] of the same compound?
Answer: 98

Question: And the “Plant response rating, Foxtail, Giant” value [3, 21]?
Answer: 100

Question: And the “Foxtail, Giant plant response rating” value [3, 22]?
Answer: 100

Question: What about the “Foxtail, Giant plant response rating” value [3, 16] of the same compound?
Answer: 85

Question: And the “Plant response rating, Wheat” value [4, 17]?
Answer: 0

Question: What about the “Plant response rating, Wheat” value [4, 18] of the same compound?
Answer: 0

Question: And the “Plant response rating, Wheat” value [4, 19]?
Answer: 0

Question: What about the “Plant response rating, Wheat” value [4, 20] of the same compound?
Answer: 0

Question: What about the “Plant response rating, Wheat” value [4, 21] of the same compound?
Answer: 0

Question: And the “Wheat plant response rating” value [4, 22]?
Answer: 5

Question: What about the “Wheat plant response rating” value [4, 16] of the same compound?
Answer: 0

Question: And the “Plant response rating, Pigweed” value [5, 17]?
Answer: 85

Question: What about the “Plant response rating, Pigweed” value [5, 18] of the same compound?
Answer: 90

Question: And the “Plant response rating, Pigweed” value [5, 19]?
Answer: 100

Question: And the “Plant response rating, Pigweed” value [5, 20]?
Answer: 100

Question: And the “Plant response rating, Pigweed” value [5, 21]?
Answer: 100

Question: And the “Pigweed plant response rating” value [5, 22]?
Answer: 100

Question: What about the “Pigweed plant response rating” value [5, 16] of the same compound?
Answer: 85

Question: And the “Barnyardgrass plant response rating” value [6, 23]?
Answer: 25

Question: And the “Plant response rating, Barnyardgrass” value [6, 17]?
Answer: 40

Question: And the “Plant response rating, Barnyardgrass” value [6, 18]?
Answer: 50

Question: And the “Plant response rating, Barnyardgrass” value [6, 19]?
Answer: 35

Question: And the “Plant response rating, Barnyardgrass” value [6, 20]?
Answer: 60

Question: And the “Plant response rating, Barnyardgrass” value [6, 21]?
Answer: 80

Question: And the “Barnyardgrass plant response rating” value [6, 22]?
Answer: 90

Question: And the “Barnyardgrass plant response rating” value [6, 16]?
Answer: 45

Question: What about the “Plant response rating, Ryegrass, Italian” value [7, 17] of the same compound?
Answer: 90

Question: And the “Plant response rating, Ryegrass, Italian” value [7, 18]?
Answer: 95

Question: And the “Plant response rating, Ryegrass, Italian” value [7, 19]?
Answer: 85

Question: And the “Plant response rating, Ryegrass, Italian” value [7, 20]?
Answer: 85

Question: And the “Plant response rating, Ryegrass, Italian” value [7, 21]?
Answer: 90

Question: And the “Ryegrass, Italian plant response rating” value [7, 22]?
Answer: 90

Question: What about the “Ryegrass, Italian plant response rating” value [7, 16] of the same compound?
Answer: 90

Question: What about the “Plant response rating, Ragweed” value [8, 17] of the same compound?
Answer: 85

Question: What about the “Plant response rating, Ragweed” value [8, 18] of the same compound?
Answer: 90

Question: What about the “Plant response rating, Ragweed” value [8, 19] of the same compound?
Answer: 80

Question: And the “Plant response rating, Ragweed” value [8, 20]?
Answer: 90

Question: And the “Plant response rating, Ragweed” value [8, 21]?
Answer: 98

Question: What about the “Ragweed plant response rating” value [8, 22] of the same compound?
Answer: 98

Question: What about the “Ragweed plant response rating” value [8, 16] of the same compound?
Answer: 85

Question: What about the “Plant response rating, Johnsongrass” value [9, 17] of the same compound?
Answer: 50

Question: What about the “Plant response rating, Johnsongrass” value [9, 18] of the same compound?
Answer: 25

Question: And the “Plant response rating, Johnsongrass” value [9, 19]?
Answer: 40

Question: And the “Plant response rating, Johnsongrass” value [9, 20]?
Answer: 30

Question: What about the “Plant response rating, Johnsongrass” value [9, 21] of the same compound?
Answer: 65

Question: What about the “Johnsongrass plant response rating” value [9, 22] of the same compound?
Answer: 40

Question: What about the “Johnsongrass plant response rating” value [9, 16] of the same compound?
Answer: 15

Question: And the “Blackgrass plant response rating” value [10, 23]?
Answer: 70

Question: What about the “Plant response rating, Blackgrass” value [10, 17] of the same compound?
Answer: 90

Question: What about the “Plant response rating, Blackgrass” value [10, 18] of the same compound?
Answer: 90

Question: What about the “Plant response rating, Blackgrass” value [10, 19] of the same compound?
Answer: 50

Question: What about the “Plant response rating, Blackgrass” value [10, 20] of the same compound?
Answer: 85

Question: And the “Plant response rating, Blackgrass” value [10, 21]?
Answer: 90

Question: What about the “Blackgrass plant response rating” value [10, 22] of the same compound?
Answer: 90

Question: And the “Blackgrass plant response rating” value [10, 16]?
Answer: 80

Question: What about the “Corn plant response rating” value (corn (Zea mays); [23]) of the same compound?
Answer: 0

Question: What about the “Plant response rating, Corn” value (corn (Zea mays); [17]) of the same compound?
Answer: 0

Question: And the “Plant response rating, Corn” value (corn (Zea mays); [18])?
Answer: 5

Question: And the “Plant response rating, Corn” value (corn (Zea mays); [19])?
Answer: 0

Question: And the “Plant response rating, Corn” value (corn (Zea mays); [20])?
Answer: 10

Question: What about the “Plant response rating, Corn” value (corn (Zea mays); [21]) of the same compound?
Answer: 0

Question: And the “Corn plant response rating” value (corn (Zea mays); [22])?
Answer: 10

Question: What about the “Corn plant response rating” value (corn (Zea mays); [16]) of the same compound?
Answer: 0

Question: And the “Plant response rating, Lambsquarters” value [11, 17]?
Answer: 100

Question: What about the “Plant response rating, Lambsquarters” value [11, 18] of the same compound?
Answer: 100

Question: And the “Plant response rating, Lambsquarters” value [11, 19]?
Answer: 85

Question: What about the “Plant response rating, Lambsquarters” value [11, 20] of the same compound?
Answer: 90

Question: What about the “Plant response rating, Lambsquarters” value [11, 21] of the same compound?
Answer: 90

Question: What about the “Lambsquarters plant response rating” value [11, 22] of the same compound?
Answer: 100

Question: And the “Lambsquarters plant response rating” value [11, 16]?
Answer: 98

Question: What about the “Plant response rating, Morningglory” value [12, 17] of the same compound?
Answer: 100

Question: What about the “Plant response rating, Morningglory” value [12, 18] of the same compound?
Answer: 100

Question: What about the “Plant response rating, Morningglory” value [12, 19] of the same compound?
Answer: 85

Question: And the “Plant response rating, Morningglory” value [12, 20]?
Answer: 90

Question: What about the “Plant response rating, Morningglory” value [12, 21] of the same compound?
Answer: 95

Question: What about the “Morningglory plant response rating” value [12, 22] of the same compound?
Answer: 98

Question: And the “Morningglory plant response rating” value [12, 16]?
Answer: 98

Question: And the “Plant response rating, Crabgrass, Large” value [13, 17]?
Answer: 40

Question: And the “Plant response rating, Crabgrass, Large” value [13, 18]?
Answer: 45

Question: What about the “Plant response rating, Crabgrass, Large” value [13, 19] of the same compound?
Answer: 80

Question: What about the “Plant response rating, Crabgrass, Large” value [13, 20] of the same compound?
Answer: 85

Question: What about the “Plant response rating, Crabgrass, Large” value [13, 21] of the same compound?
Answer: 80

Question: What about the “Crabgrass, Large plant response rating” value [13, 22] of the same compound?
Answer: 85

Question: What about the “Crabgrass, Large plant response rating” value [13, 16] of the same compound?
Answer: 30

Source: patent publication US10597388B2, “Pyridazinone herbicides” (FMC CORPORATION, priority 2014, dated 2020)
